This assay relates to Plasmodium falciparum Dd2 asexual blood stage parasites. Kind of assay: microbe, parasite or virus in culture. More on the design: species or system Plasmodium falciparum Dd2 in human erythrocytes; single determination (one 11-point concentration-response curve). Conditions: Plasmodium falciparum, DD2, Erythrocyte, 72 h; read-out: AC50.

The AC50 is the midpoint of the concentration-response curve, whichever way the signal moves. On to `Cc1ccc(-c2noc(-c3ccccc3NC(=O)C3CC(=O)N(c4ccc(C)cc4)C3)n2)cc1` (stereo not drawn) [NCGC00119552-01], for which the AC50 was 4.22 µM.

On to `CCOc1ccc(-c2cc3nc(C4CCN(C(=O)OC(C)(C)C)CC4)c(C(=O)Nc4ccc(C(=O)OC)cc4)cn3n2)cc1` [NCGC00110849-01], for which the concentration at half-maximal activity (AC50) is 4.73 µM.

With `COc1ccc(CN2C[C@H]3CN(Cc4c[nH]c5ccccc45)CCN3C2=O)cc1` [NCGC00392270-01], the AC50 worked out at 3.85 µM. Consider `Cn1nc(C2CCCCC2)cc1[C@H]1CN2CC[C@H]1C[C@@H]2CNC(=O)c1cccs1` [NCGC00399662-01], for which the AC50 stood at 13.7 µM. The same measure for `Cc1cc(Nc2cccc(Cl)c2)nc(NCc2ccccc2)n1` [MLS000591844-01]: 8.41 µM; for `C=CCCC(CN1CCCC1)Oc1ccc(C(=O)N2CCCC2)cn1` (stereo not drawn) [NCGC00435125-01]: 13.3 µM. In the case of `COc1ccc(-c2noc(-c3cccn3CC(=O)Nc3ccccc3C)n2)cc1F` [NCGC00445484-01], the AC50 is 5.31 µM.

With `Oc1ccc(CN2CCCCC2)nc1-c1ccccc1` [MLS000031925-01], the AC50 was 0.531 µM. Turning to `Cc1ccc(NC(=O)c2c(C)oc3ccc(O)c(CN(C)Cc4ccccc4)c23)c(C)c1` [NCGC00115687-01], the AC50 is 5.96 µM. The same measure for `CCOc1ccc(NC(=O)c2cnn3c2NC(c2cccc(OC)c2)=CC3c2ccccc2)cc1` (stereo not drawn) [NCGC00121753-01]: 4.73 µM; for `CCN(CC)C(=O)c1ccc(-c2nnc3ccc(NC(=O)C4CC4)cn23)cc1` [NCGC00429860-01]: 2.99 µM; for `O=C(NC1CC1)c1ccc(CSCc2cccc(F)c2)o1` [MLS000120194-01]: 8.41 µM. As to `Cc1cc(C)c2oc(=O)cc(CN3CCCCC3)c2c1` [MLS001216359-01], the AC50 is 13.3 µM. With `COC(=O)c1ccc(Nc2nnc(-c3ccc(C)c([S+](=O)([O-])N4CCN(C)CC4)c3)c3ccccc23)cc1` [NCGC00099996-01], the AC50 was found to be 8.41 µM.

In the case of `CCOc1cc(C(=O)Nc2ccc3nc(Nc4cccc(Cl)c4)cc(C)c3c2)cc(OCC)c1OCC` [NCGC00124408-01], the AC50 turned out to be 1.88 µM. `O=c1c2ccccc2sc2nc(C3CCCCC3)n(Cc3ccco3)c(=O)c12` [MLS000084065-01]: the AC50 amounted to 7.5 µM. The same measure for `Cc1cc(Nc2ccc(Br)cc2)n2nc(C)nc2n1` [MLS000116653-01]: 7.5 µM; for `CCOc1ccc2[nH]c3c(NCCN(C)C)ncnc3c2c1` [MLS001214990-01]: 16.8 µM; for `CC(=O)C1=C(c2ccccc2)N(C(C)=O)n2c(nnc2C2CCCCC2)S1` [NCGC00137174-01]: 4.22 µM.

Consider `CCn1cc(CN2CC(Oc3ccc(-c4noc(-c5ccncc5)n4)cc3)C2)cn1` [NCGC00458017-01], for which the AC50 stood at 13.3 µM. Take `O=C(Nc1sc2c(c1C(=O)NCc1ccco1)CCCC2)c1cc(=O)c2ccccc2o1` [NCGC00115806-01]: the AC50 amounted to 10.6 µM. The same measure for `Cn1cc(CN2CCCC(CO)(Cc3ccccc3)C2)cn1` (stereo not drawn) [MLS000732297-01]: 5.96 µM. `COc1ccc(-n2nc(C(=O)NCCc3ccc(OC)c(OC)c3)c3c4ccccc4n(C)c3c2=O)cc1Cl` [NCGC00108876-01]: the AC50 was determined as 2.99 µM. On to `Cc1nn(-c2ccccc2)c2c1C(O)n1c(nc3ccccc31)S2` (stereo not drawn) [MLS000081954-01], for which the AC50 was 5.31 µM. Turning to `CC(C)N1CC=C(c2c[nH]c3ccccc23)CC1` [MLS000093714-01], the AC50 was 10.6 µM. The same measure for `CCOc1ccccc1NC(=O)C1CCN([S+](=O)([O-])c2c(C)noc2/C=C/c2ccco2)CC1` [NCGC00109315-01]: 15 µM; for `O=C1NCc2ccccc2CC12CCCN(CC1=CCCCC1)C2` (stereo not drawn) [NCGC00377566-01]: 3.31 µM. Turning to `CCCn1c(C)cnc1CC1CCN([S+](=O)([O-])c2ccc3c(c2)CCC3)C1` (stereo not drawn) [NCGC00464176-01], the AC50 turned out to be 9.44 µM.

With `COc1ccc(-c2cc(C(=O)NCc3c(C)cc(C)[nH]c3=O)c3c(c2)N(C)CCO3)cn1` [NCGC00417013-01], the AC50 came out at 19.3 µM. As to `CC(C)CCN1CCn2c(nn(-c3ccc([N+](=O)[O-])cc3)c2=O)C1` [NCGC00479600-01], the AC50 was 17.2 µM. The same measure for `CCN1CCN(Cc2ccc(NC(=O)c3cc(NC(=O)c4cc(-c5ccc(OC)cc5)n[nH]4)cc(OC)c3)cc2C(F)(F)F)CC1` [MLS000911571-01]: 0.168 µM.

Take `O=C(Nc1nc2ccccc2n1Cc1ccccc1)c1ccc(COc2ccccc2[N+](=O)[O-])o1` [MLS000543610-01]: the AC50 is 16.8 µM. `CCn1c(=O)c2cc(C(=O)N(CC(C)C)CC(C)C)sc2c2ccccc21` [NCGC00110427-01]: the AC50 was 10.6 µM. `CC(C)c1cc(C(=O)Nc2cc(Cl)ccc2O)no1` [MLS000087324-01]: the AC50 came out at 6.68 µM.

Take `COc1ccccc1N1CCN(C(=O)C2CCCN(S(=O)(=O)c3ccc4c(c3)oc(=O)n4C)C2)CC1` (stereo not drawn) [NCGC00140732-01]: the AC50 was determined as 5.96 µM. For `COc1cc2c(cc1OCC1CC1)NC(=O)C21CCN(c2nccs2)CC1` [NCGC00416908-01], the AC50 stood at 21.7 µM. As for `CC(C)c1ccc(C2c3[nH]c4ccccc4c3C[C@H]3C(=O)N(c4ccccc4C(=O)N4CCC(C(=O)O)CC4)C(=O)N23)cc1` (stereo partly drawn) [MLS001140664-01], the AC50 was determined as 6.68 µM. For `CCN(CC)CCC(c1ccc(N(C)C)cc1)c1c(O)cc(OC)cc1OC` (stereo not drawn) [MLS000879508-01], the AC50 amounted to 3.35 µM. Take `CCCCCCCn1c(NC(=O)CC)nc2ccccc21` [MLS001042192-01]: the AC50 was 16.8 µM. With `COC(=O)C1=C(c2ccc(OC(F)(F)F)cc2)C[C@@H]2CC[C@H]1N2C(=O)NCc1cccc2ccccc12` [MLS002302720-01], the concentration at half-maximal activity (AC50) stood at 3.35 µM. Turning to `CCn1cc(CN2CCC(N3CC(OCC4CC4)C34CCCCC4)CC2)cn1` (stereo not drawn) [NCGC00463414-01], the AC50 was 8.41 µM.

For `Cc1ccc(CN2CCCN(Cc3ccncc3)C(c3ccccc3)CC(=O)NCC2)o1` (stereo not drawn) [NCGC00467180-01], the AC50 was determined as 7.5 µM.

With `COc1ccccc1N1CCN(C(c2cc3ccc(C)cc3nc2O)c2nnnn2C2CCCC2)CC1` (stereo not drawn) [MLS000077380-01], the half-maximal activity concentration (AC50) is 7.5 µM. On to `COC(=O)[C@@H]1Cc2c([nH]c3ccccc23)[C@H]2C[C@H](N3CCCCC3)C[C@@H](c3ccccc3F)N21` [NCGC00421326-01], for which the AC50 is 5.96 µM. For the compound `COc1cc(CN2CC(=O)N(c3ccc(C)c(C)c3)C2=S)cc(OC)c1OC` [MLS000583901-01], the AC50 is 15 µM. `COc1cccc(CN2CCCC(NCc3cc(C)ccc3-n3cccn3)C2)c1` (stereo not drawn) [NCGC00427605-01]: the AC50 is 2.99 µM. For `CC(=O)C1=C(c2ccc(Cl)cc2)N(C(C)=O)n2c(nnc2C2CCCCC2)S1` [NCGC00137192-01], the AC50 came to 4.73 µM. In the case of `CCn1ccc2ccc(CN3CCCC(O)(CN4CCCC4)C3)cc21` (stereo not drawn) [NCGC00441341-01], the concentration at half-maximal activity (AC50) was 7.5 µM. As to `CCCCn1cc([S+](=O)([O-])c2ccc(Cl)cc2)c(=O)c2cc(F)c(N3CCCCC3)cc21` [NCGC00123723-01], the AC50 was found to be 15 µM. Turning to `COc1cc2c(cc1OCc1ccccc1)N([S+](=O)([O-])c1cccnc1)CC21CCN(C)CC1` [NCGC00419860-01], the AC50 turned out to be 10.6 µM. The same measure for `CCc1cc(=O)oc2cc(C)cc(OCC(=O)NCC(O)c3ccccc3)c12` (stereo not drawn) [MLS001158251-01]: 6.68 µM; for `COc1cc2nc(NCc3ccc(C)cc3)n3nc(-c4ccccc4)nc3c2cc1OC` [NCGC00112855-01]: 0.266 µM. The same measure for `Oc1ccccc1CN[C@H]1[C@H](O)[C@@H](N2CCC(Cc3ccccc3)CC2)[C@@H]2OC[C@H]1O2` [NCGC00400924-01]: 3.44 µM; for `COc1ccc(C(O)(CCC(C)C)C(CN2CCOCC2)c2ccc(Cl)cc2)cc1` (stereo not drawn) [MLS001200330-01]: 6.68 µM; for `CN(Cc1ccccc1)Cc1ccccc1OCC(O)CN1CCCCC1` (stereo not drawn) [NCGC00426411-01]: 1.5 µM.

Consider `CC(=O)NCCC(=O)Nc1cc(S(=O)(=O)N2CCCCC2)ccc1N1CCCCC1` [MLS002181171-01], for which the AC50 came to 7.5 µM.

In the case of `CC(=O)N1CCc2cc(Br)cc(S(=O)(=O)N3CCCCCC3)c21` [MLS000086258-01], the AC50 amounted to 5.31 µM. Regarding `c1ccc(Sc2cccc3ccccc23)c(CNC2=NCCN2)c1` [MLS000702748-01], the AC50 came to 13.3 µM. The same measure for `Cc1cc([N+](=O)[O-])ccc1NC(=O)COc1nsnc1N1CCOCC1` [MLS000950344-01]: 6.68 µM; for `CC(O)CNCCNCc1c(OCc2ccccc2)ccc2ccccc12` (stereo not drawn) [MLS000324858-01]: 8.41 µM. On to `Cc1ccccc1NC(=O)c1cc2c(-c3ccccc3)nn(-c3ccccc3)c2s1` [NCGC00102094-01], for which the AC50 stood at 11.9 µM. On to `CCc1nn2cc(C(=O)c3cc(C)ccc3O)cnc2c1-c1ccc(F)cc1` [MLS000548735-01], for which the AC50 stood at 9.44 µM.

For the compound `COCCCNC(=O)C1(C)CN(C)Cc2ccc(Nc3ccccc3)nc21` (stereo not drawn) [NCGC00414477-01], the AC50 worked out at 6.85 µM. For the compound `CCN(CC)c1ccc2oc(=O)c(C)nc2c1` [MLS000062529-01], the AC50 worked out at 6.68 µM. Turning to `COc1ccccc1NS(=O)(=O)c1cc(NC(=O)c2cccc(S(=O)(=O)N(C)C)c2)ccc1N1CCOCC1` [MLS002162226-01], the AC50 is 7.5 µM. With `C#CCN(C)C(=O)C[C@@H]1c2nc(NC(=O)c3ccc(OC)cc3)sc2C[C@@H]2[C@](C)(CO)[C@H](O)CC[C@]21C` [NCGC00394313-01], the half-maximal activity concentration (AC50) amounted to 2.66 µM.

Turning to `CCn1cc(CN2CCCC(COc3ccccc3C(=O)N3CCCC3)C2)c2ccccc21` (stereo not drawn) [NCGC00427142-01], the AC50 turned out to be 8.41 µM. Regarding `CCOC(=O)c1cnn(-c2ccc(C(=O)Nc3ccc(C(C)=O)cc3)cc2)c1N` [NCGC00137680-01], the AC50 stood at 4.73 µM. Consider `CCc1ccc(NC(=O)CSc2nc3[nH]nc(C)c3c(=N)n2-c2ccc(C)cc2)cc1` [NCGC00140694-01], for which the AC50 amounted to 6.68 µM. The same measure for `COc1cc2c(cc1OC1CCCC1)NC(=O)C21CCN(Cc2nccs2)CC1` [NCGC00416850-01]: 19.3 µM; for `Cc1ccc(NC(=O)Cn2c(-c3ccccc3)nc(C)c(CCO)c2=O)cc1Cl` [NCGC00470911-01]: 10.6 µM; for `CCN(CC)CCNC(O)=C1C(=O)c2cccc3c2N(CCC3)C1=O` [MLS000078957-01]: 10.6 µM.

(Values after PMC7822874, “Chemoprotective antimalarials identified through quantitative high-throughput screening of Plasmodium blood and liver stage parasites” (Scientific Reports, 2021).)
